Counter-ions that a name gives are not always drawn. Like-named read-outs stand apart in the source and are kept apart here.
Assays:
[1] = molecular target: recombinant GlPDE(aa588-1371) (Giardia intestinalis, UniProt A0A644EZ75); test: biochemical; type: biochemical; conditions: for Activity against recombinant GlPDE in profiling assay: inhibitor at 100 μM, Fig 3A
Source text: The DNA sequence comprising the catalytic domain (residues Gly-983 –Glu-1371) was amplified by PCR using genomic DNA of G. lamblia WBC6 and the primer pair GlPDE1cat-for (5'-[…]-3') and GlPDE1cat-rev (5'-[…]-3'). The PCR product was then cloned into the TA vector pCRII-TOPO (Invitrogen) yielding plasmid pCR-GlPDE1cat. To get a plasmid containing the sequence coding for the full length protein lacking the N-terminal transmembrane helices (Met-588 –Glu-1371) of GlPDE, a further PCR product was produced using the primer pair GlPDE1-Mfor (5'-[…]-3') and GlPDE1-LMrev (5'-[…]-3') and was cloned via NdeI (bold) and BsrGI into pCR-GlPDE1cat resulting in plasmid pCR-GlPDE1M. The inserts of both plasmid constructs were verified by sequencing and subcloned into two variants of the yeast expression vector pLT1 [42] using the restriction enzymes SalI (italic)/EcoRV or NdeI (bold)/EcoRV. The EcoRV cloning site originated from the multiple cloning site of the pCRII-TOPO vector. One pLT1 variant directs the expression of the Giardia protein alone, whereas the other adds an N-terminal hemagglutinin (HA) tag to allow detection of the recombinant protein. Transformation of the constructs into the PDE-deficient S. cerevisiae strain PP5 (MATa leu2-3 leu2- 112 ura3-52 his3-532 his4 cam pde1::URA3 pde2::HIS3) was carried out as described previously.
Yeast cell pellets were created exactly as described previously. Briefly, yeast was grown at 30°C in SC-leu medium to end log phase and thereafter again for 3.5 h in YPD to maximize protein expression. Washed cells were frozen in liquid nitrogen and stored at -70°C. Frozen cell pellets were thawed on ice and resuspended in an equal volume of ice-cold extraction buffer (50 mM HEPES, pH 7.5, 100 mM NaCl, 1x Complete protease inhibitor cocktail without EDTA (Roche Applied Science)). Cell lysates were produced by three passages through a high pressure homogenizer (French press at 20’000 psi, 4°C). Unbroken cells and cell debris were removed by centrifugation for 20 min at 16’000 RCF at 4°C. 25% glycerol was added to the cleared supernatant. Aliquots were snap-frozen in liquid nitrogen and stored at -70°C for subsequent PDE activity assays.
PDE activity was determined by a modification of the two-step procedure of Thompson and Appleman as described previously. In all reactions no more than 20% of the substrate was hydrolyzed. […] Inhibitors were dissolved and diluted in dimethyl sulfoxide (DMSO), with 1% final DMSO concentration in the reaction mixes. Control reactions with DMSO alone were always included. Data were analyzed using the GraphPad Prism software package (GraphPad, San Diego).

[2] = system: G. lamblia WBC6 trophozoites; test: G. lamblia trophozoite proliferation assay (resazurin); type: cell-based, Giardia lamblia; conditions: for EC50: G. lamblia WBC6 trophozoites, 72 h anaerobic culture, read-out: Giardia cells EC50; for Effect on Giardia trophozoite proliferation: 50 μM inhibitor, 72 h culture, Fig 3B
Experimental: G. lamblia WBC6 (ATCC catalogue number 50803) trophozoites were grown under microaerophilic conditions in 11 ml culture tubes (Nunc, cat. 156758) containing TYI-S- 33 medium supplemented with 10% bovine serum and bovine bile according to standard protocols. Parasites were harvested by chilling the tubes on ice for 30 minutes to detach adherent cells and collected by centrifugation (900 x g, 10 minutes, 4°C). Encystation was induced using the two-step method as described previously by cultivating the trophozoites in bile-free medium for 44 hours and thereafter in medium (pH 7.85) containing porcine bile.
Test compounds were dissolved in DMSO and serially diluted in Giardia culture medium. G. lamblia WBC6 trophozoites were grown until adherent cells reached a confluency close to 100%. Cells were then chilled on ice for 20 min and adherent parasites were detached from the culture tube. Cultures were diluted to 5x10^3 cells/ml in growth medium (room temperature) and 100 μl aliquots were immediately added to wells of 96-well plates preloaded with the same volume of test compound dilutions. DMSO (solvent) controls were always included. Plates were incubated for 72 h at 37°C in a humid chamber with an anaerobic atmosphere. Adherent cells were then washed twice with 200 μl PBS before adding 200 μl of PBS containing […] resazurin and 1% glucose. After incubation for 4 h at 37°C, plates were read on a fluorescence plate reader (Wallac 1420 VICTOR^2, PerkinElmer) with excitation and emission wavelengths of 544 nm and 590 nm, respectively. Data were analyzed with the GraphPad Prism software package using a sigmoidal dose-response model for regression. All assays were done in quadruplicate and at least three independent experiments were performed.

[3] = system: TbrPDEB1 and TbrPDEB2; design: method as in PMID 22291195, PMID 22963052; conditions: cited from earlier work

SMILES | IC50 ([1]; read-out: Giardia PDE IC50) [µM] | IC50 [1] [µM] | EC50 ([2]; Giardia duodenalis) [µM] | further results
CCCCOc1cc(CC2CNC(=O)N2)ccc1OC (stereo not drawn) [Ro20-1724] | > 100 |  |  | EC50 [2]: > 50 µM
COc1cc2ncnc(N3CC[C@@H](Oc4cnc5ccccc5n4)C3)c2cc1OC [NEU28] | ~100 |  |  | EC50 [2]: 30.6 µM
CCCc1nn(C)c2c(=O)[nH]c(-c3cc(S(=O)(=O)N4CCN(C)CC4)ccc3OCC)nc12 [Sildenafil, sildenafil citrate] |  | > 100 | > 50 | 
Cc1ccc([N+](=O)[O-])cc1S(=O)(=O)N(C)C [BRL 50481] | > 100 |  |  | 
COc1cc(-c2ccc(=O)[nH]n2)ccc1OC(F)F [Zardaverine, zardaverine] |  | > 100 | > 50 | 
CCCOc1ccccc1-c1nc2nn[nH]c2c(=O)[nH]1 [Zaprinast, zaprinast] | > 100 |  | > 50 | 
Cc1[nH]c(=O)c(C#N)cc1-c1ccncc1 [Milrinone, milrinone] |  | > 100 | > 50 | 
COCc1nc2c([nH]1)c(=O)n(C)c(=O)n2CC(C)C [8'-MM-IBMX, 8-methoxymethyl-IBMX] | > 100 |  |  | EC50 [2]: > 50 µM
CN1CC(=O)N2[C@H](c3ccc4c(c3)OCO4)c3[nH]c4ccccc4c3C[C@@H]2C1=O [Tadalafil, tadalafil] | > 100 |  | > 50 | 
CCCCCC[C@@H]([C@@H](C)O)n1cnc2c(N)ncnc21 (racemic) [EHNA, erythro-9-(2-hydroxy-3-nonyl)adenine] | > 100 |  |  | EC50 [2]: > 50 µM
CC(C)Cn1c(=O)n(C)c(=O)c2[nH]cnc21 [IBMX, isobutyl-methyl-xanthine] | > 100 |  | > 50 | 
CCOC(=O)C1=C[C@]2(CC)CCCN3CCc4c(n1c1ccccc41)[C@@H]32 [Vinpocetine, vinpocetine] |  | > 100 | 16.3 | 
COc1ccc(C(=O)Nc2c(Cl)cncc2Cl)cc1OC1CCCC1 [Piclamilast, piclamilast] |  | 11.3 | 12 | Activity against recombinant GlPDE in profiling assay [1]: showed promising activity against GlPDE; Effect on Giardia trophozoite proliferation [2]: also inhibited Giardia trophozoite proliferation
Nc1nc2c(ncn2[C@@H]2O[C@@H]3COP(=O)(O)O[C@H]3[C@H]2O)c(=O)[nH]1 [cGMP] |  |  |  | Acceptance as substrate by GlPDE ([1]; recombinant GlPDE(aa588-1371)): does not accept cGMP as a substrate
COc1ccc(C2=NN(C3CCCCCC3)C(=O)[C@@H]3CC=CC[C@H]23)cc1OCCCCOc1ccc(-c2nn[nH]n2)cc1 [NPD-001] | 0.8 |  |  | Potency against trypanosomal PDEs [3]: potencies in the nanomolar range; Activity against recombinant GlPDE in profiling assay [1]: showed promising activity against GlPDE; Effect on Giardia trophozoite proliferation [2]: also inhibited Giardia trophozoite proliferation; EC50 [2]: 6.9 µM
OCCN(CCO)c1nc(N2CCCCC2)c2nc(N(CCO)CCO)nc(N3CCCCC3)c2n1 [Dipyridamole, dipyridamole] |  | 26.3 | > 50 | Activity against recombinant GlPDE in profiling assay [1]: showed promising activity against GlPDE
C[C@H](Cc1nc2c(cnn2-c2ccccc2Cl)c(=O)[nH]1)C(F)(F)F [BAY 73–6691] | > 100 |  |  | EC50 [2]: > 50 µM
COc1ccc(Cc2nccc3cc(OC)c(OC)cc23)cc1OC [Papaverine, papaverine] |  | > 100 | > 50 | 
COc1ccc(Cc2nn3c([C@@H](CCCc4ccccc4)[C@@H](C)O)nc(C)c3c(=O)[nH]2)cc1OC [BAY 60–7550] |  |  |  | EC50 [2]: ~50 µM
O=C(Nc1c(Cl)cncc1Cl)c1ccc(OC(F)F)c(OCC2CC2)c1 [Roflumilast, roflumilast] |  | 6 | 7.4 | Activity against recombinant GlPDE in profiling assay [1]: showed promising activity against GlPDE; Effect on Giardia trophozoite proliferation [2]: also inhibited Giardia trophozoite proliferation
CC(=O)CCCCn1c(=O)c2c(ncn2C)n(C)c1=O [Pentoxifylline, pentoxifylline] |  |  | > 50 | 
COc1cc2c(cc1OC)-c1c/c(=N\c3c(C)cc(C)cc3C)n(C)c(=O)n1CC2 [Trequinsin, trequinsin] |  | > 100 | > 50 | 
CCOC(=O)c1cnc2c(cnn2CC)c1NN=C(C)C [Etazolate, etatolate] | ~100 |  | > 50 | 
COc1ccc(C2CNC(=O)C2)cc1OC1CCCC1 (stereo not drawn) [Rolipram, rolipram] | > 100 |  | > 50 | 
CN(C(=O)CCCOc1ccc2[nH]c(=O)ccc2c1)C1CCCCC1 [Cilostamide, cilostamide] | > 100 |  | > 50 | 
